Experimental data reported in patent US20100298437A1, “USE OF CITRULLINE FOR TREATING UNDERNUTRITION CONDITIONS” (UNIVERSITE RENE DESCARTES-PARIS 5, priority 2006, published 2010).

Assays:
[1] = enteral administration, rats with intestinal insufficiency; from FR 03 08349; cited from earlier work
epitrochlearis [2] = assay: Metabolism of citrulline by isolated incubated muscle (amino acids titrated in incubation medium); assay type: in vitro ADME, rat; conditions: isolated muscle of healthy or undernourished adult rats, no metabolically linked amino acid released in incubation medium (results not shown)
Method: Incubated isolated muscles. Muscles were incubated according to a method which had been used previously (Minet-Quinard R, Moinard C, Villie F, Vasson M P, Cynober L. Metabolic pathways implicated in the kinetic impairment of muscle glutamine homeostasis in adult and old glucocorticoid-treated rats. Am J Physiol Endocrinol Metab 2004; 287:E671-E676). Epitrochlearis is used because it is the most suitable for this type of study. After dissection, the epitrochlearis are incubated in 3 mL Krebs-Ringer buffer (119 mM NaCl; 4.8 mM KCl; 1.25 mM MgSO4; 25 mM NaHCO3; 1.24 mM NaHPO4; 1.0 mM CaCl2; 2 mM HEPES, pH 7.4), also containing glucose (8 mM), insulin (0.01 U/ml) and bovine serum albumin (BSA) (0.1% p/v). The muscles are pre-incubated during 30 minutes at 37° C. with 95% O2: 5% CO2. The muscles are then transferred into a tube containing 3 mL incubation medium (with ^13C-phenylalanine (1 mM) with or without 2.5 mM citrulline), and are incubated during 2 hours. At the end of the incubation, the muscles are collected and kept at −80° C. until the incorporation of ^13C-phenylalanine is measured by mass spectrometry in order to determine the Fractional Protein Synthesis (FSR) (Guillet C, Boirie Y, Walrand S. An integrative approach to in-vivo protein synthesis measurement: from whole tissue to specific proteins. Curr Opin Clin Nutr Metab Care 2004; 7:531-538). […]

[3] = undernourished aged rats, former studies of the inventors; cited from earlier work
epitrochlearis [4] = assay: Muscle protein synthesis (FSR) measured in vitro on isolated incubated muscle; parameters: species or system rat; conditions: for increase of muscle protein synthesis (FSR): isolated muscle of undernourished adult rats, 2.5 mM citrulline, 2 hours incubation, versus control without citrulline
Method: Treatment of animals: Male Sprague-Dawley rats (Charles River Laboratoires, L'Arbresles, France) aged 3 months (n=20) are placed in individual cages in a thermostated atmosphere (23°±1° C.), and subjected to a 12 hr light/dark cycle (dark between 8 a.m.-8 p.m.).
Acclimatization of the rats is carried out during 2 weeks, during which the spontaneous food consumption is measured. The rats are fed a standard diet (A04, UAR, Villemoisson-sur-Orge, France) containing 17% proteins, 3% lipids, 59% carbohydrates and 21% water, fibers, vitamins and minerals. The average dietary intake during this period is 28 g/day for adult rats.
At the end of the acclimatization period, the rats are randomized in 2 groups: a control group made up of rats which are fed ad libitum (AL), and a group which is subjected to dietary restrictions during the same period: the rats are fed at a rate of 50% of spontaneous ingesta during 6 weeks with a 5% protein diet (Walrand S, Chambon-Savanovitch C, Felgines C, Chassagne J, Raul F, Normand B et al. Aging: a barrier to renutrition? Nutritional and immunologic evidence in rats. Am J Clin Nutr 2000; 72:816-824).
Incubated isolated muscles. Muscles were incubated according to a method which had been used previously (Minet-Quinard R, Moinard C, Villie F, Vasson M P, Cynober L. Metabolic pathways implicated in the kinetic impairment of muscle glutamine homeostasis in adult and old glucocorticoid-treated rats. Am J Physiol Endocrinol Metab 2004; 287:E671-E676). Epitrochlearis is used because it is the most suitable for this type of study. […] At the end of the incubation, the muscles are collected and kept at −80° C. until the incorporation of ^13C-phenylalanine is measured by mass spectrometry in order to determine the Fractional Protein Synthesis (FSR) (Guillet C, Boirie Y, Walrand S. An integrative approach to in-vivo protein synthesis measurement: from whole tissue to specific proteins. Curr Opin Clin Nutr Metab Care 2004; 7:531-538). […]

P70S6kinase = assay: In vivo activation of the mTOR pathway: P70S6kinase by Western Blot in tibialis muscles of undernourished aged rats; parameters: species or system rat; conditions: tibialis muscle
Method: Treatment of animals: Forty male Sprague-Dawley rats aged 19 months (Charles River, L'Arbresle, France) were used. During an acclimatization period of 2 weeks the animals were fed ad libitum with a standard diet (UARA04, Usine d'Alimentation Rationnelle, Villemoisson-sur-Orge). Measurement of the spontaneous ingesta was carried out regularly. After this period 30 rats were subjected to a 50% dietary restriction during 12 weeks. Sacrificing 10 rats, used as a control group (group R), was carried out at the end of the dietary restriction period. The other 20 animals were again fed during one week before being sacrificed. Isonitrogen and isocaloric diets were either a standard diet enriched with citrulline 5 g/kg/d (n=10, group R+CIT), or a standard diet enriched with non essential amino acids (Ala, Gly, His, Asp, Ser in an equimolar ratio) (n=10, group R+AANE). Ten rats make up the control group (A.L); they are fed ad libitum all along the study before being sacrificed. Then the rats are sacrificed. The tibialis muscles are taken and quickly frozen in liquid nitrogen, then stored at −80° C. until analysis.
Extraction of proteins and titration: The muscles are ground in liquid nitrogen with a mortar. The thus obtained powder is weighed, and then taken again in 10 volumes of a solubilization buffer containing a cocktail of phosphatase and protease inhibitors. […]

## NC(=O)NCCC[C@H](N)C(=O)O [L-citrulline]
[1]
  body weight: allowed these rats to take on weight again
Epitrochlearis [2]; listed as Citrulline
  metabolism of citrulline by the muscle: not metabolized
Epitrochlearis [2]; listed as citrulline
  metabolism of citrulline by the muscle: no capacity to metabolize
[3]
  protein synthesis level: restore a protein synthesis level which is equivalent to the baseline protein synthesis level among healthy aged rats
Epitrochlearis [4]
  increase of muscle protein synthesis (FSR): +27%
Epitrochlearis [4]; listed as citrulline
  increase of muscle protein synthesis (FSR): up to 30%
Epitrochlearis [4]; isolated muscles of healthy adult rats, citrulline added in vitro
  effect on protein synthesis: no effect
P70S6kinase; 12 weeks 50% dietary restriction, then one week diet enriched with citrulline 5 g/kg/d
  activity of P70S6 kinase as compared with group R: +417%
P70S6kinase; dietary restriction, then one week enriched diet
  activity of P70S6 kinase compared with control group A.L. (in words): not being significantly different
